Source: US20220040162A1, “COMPOSITIONS COMPRISING A CRAC INHIBITOR AND A CORTICOSTEROID AND METHODS OF USE THEREOF” (Rhizen Pharmaceuticals AG, priority 2018, published 2022)

Experiments:
U937 cells = test: H2O2 induced corticosteroid insensitivity in U937 cells (TNF-α induced IL-8, ELISA); type: cell-based; details: H2O2 treated U937 macrophages; addition of 1 μM Compound A; FIG. 1B
Method: U937 cells were maintained in RPMI-1640 with 15 mM glutamine. 6×10^6 cells were taken in a T-25 flask with 12 ml of fresh medium and treated with 1 μM of Compound A and incubated at 37° C. and 5% CO2 for 30 min.
H2O2 was added at a final concentration of 200 μM to the above cells and incubated for 2 h.
Cells were pelleted and resuspended in serum free media and seeded on to a 96-well plate at 0.15×10^6 cells per well in 100 μl.
50 μl of 3× dexamethasone at desired concentrations was added and incubated for 45 min
50 μl of 4× concentration of TNF-α was added such that the final concentration was 10 ng/ml, to induce IL-8 and incubated for 18 h.
Supernatant was collected and IL-8 was estimated by ELISA.
IL-8 strips were plated with fresh or thawed supernatants and incubated at room temperature for 2 h or overnight at 4° C.
Contents were discarded and strips were washed with 200 μl of wash buffer per well for 15 s for a total of 5 times.
Strips were blotted dry and 100 μl per well of 1× detection antibody was added and incubated at room temperature for 1 h.
Strips were blotted dry and 100 μl per well of 1× Avidin-HRP antibody was added and incubated at room temperature for 30 min.
Contents were discarded and the strips were washed with 200 μl per well of wash buffer for 15 s for a total of 5 times. […]
Absorbance was read on a plate reader at A450 nm and A570 nm.

[1] = test system: mononuclear cells isolated from peripheral blood; test: LPS-induced IL-1β, IL-6 and GM-CSF release in mononuclear cells isolated from healthy and asthmatic patients; type: cell-based, human; details: single agent
Method: Mononuclear cells were isolated from peripheral blood of healthy volunteers, and asthmatic patients. Briefly, PBMC were isolated from peripheral venous blood by standard laboratory procedures. Peripheral venous blood was mixed with dextran 500 at 3% (in 0.9% saline) in a proportion of 2:1. This mixture was incubated at room temperature for 30 min until sedimentation of erythrocytes. The upper phase was carefully collected and layered on Ficoll-Paque Histopaque 1077 density gradient in a proportion of 3:1. (PBMC) layer was isolated and quantified.
For the single agent study, isolated mononuclear cells were incubated with Compound A, or vehicle for 30 minutes before incubation with or without LPS for 6 hours in standard cell culture conditions (37° C. and 5% CO2). For the combination experiments, the same procedure was followed except that cells were incubated with Compound A (1 μM) in combination with fluticasone (0.1 nM). Supernatants were collected to measure IL-1β, IL-6, and GM-CSF. Data was analysed using Graphpad Prism.

[2] = asthmatic patients, LPS stimulus 6 hours

reduction in IC50 of dexamethasone for IL-8 release (U937 cells): 3 fold
Structure (SMILES): Cc1ccccc1C(=O)Nc1ccc(-n2nc(C(F)(F)F)cc2C2CC2)nc1 [Compound A, N-{6-[5-cyclopropyl-3-(trifluoromethyl)-1H-pyrazol-1-yl]pyridin-3-yl}-2-methyl benzamide]
percentage maximum effect (% Emax), GM-CSF release [1, 2]: 80±16.4%
percentage maximum effect (% Emax), IL1β release [1, 2]: 68.9±23.7%
percentage maximum effect (% Emax), IL6 release [1, 2]: 52.5±30.3%
% Emax for IL1β compared with asthmatic cells ([1]; healthy donors, LPS stimulus): higher % Emax
